Source: publication PMC6199744, “Development of Chemical Proteomics for the Folateome and Analysis of the Kinetoplastid Folateome” (ACS Infectious Diseases, 2018)
“And” between values parts separate entries of the source, which are not always exact repeats. Equal values may be shown once. Read-outs that look alike come from different tables or passages of the source.

Tested on: T. brucei lysate proteins
Type: binding, Trypanosoma brucei

SMILES: CCCCCCOc1cccc(Cc2cnc(N)nc2N)c1 [compound 2]
- fold change - vehicle control: 1 and 0.55 and 0.88 and 0.98 and 0.99
- fold change - vehicle control (protein RHS6A (CZT00028360.1)): 0.94
- fold change - vehicle control (protein TB09.160.1250 HY[…], CONSERVED): 0.96
- fold change - vehicle control (protein TB09.160.3670 RIBOSOMAL PROTEIN S6, PUTATIVE): 0.84
- fold change - vehicle control (protein TB09.211.2630 60S RIBOSOMAL PROTEIN L23, PUTATIVE): 1.12
- fold change - vehicle control (protein TB09.211.4513 KIN[…] PROTEIN KMP-11): 0.9
- fold change - vehicle control (protein TB11.V4.0005 RIBONUCLEOSIDE-DIPHOSPHATE REDUCTASE SMALL CHAIN): 0.86
- fold change - vehicle control (protein TB11.01.0870 R[…] A, 51KDA SUBUNIT, PUTATIVE): 1.05
- fold change - vehicle control (protein TB11.01.2560 40S RIBOSOMAL PROTEIN SA, PUTATIVE): 1.05
- fold change - vehicle control (protein TB11.01.4880 HY[…], CONSERVED): 0.89
- fold change - vehicle control (protein TB11.01.7090 HY[…], CONSERVED): 0.9
- fold change - vehicle control (protein TB11.02.2510 GUANINE NUCLEOTIDE-BINDING BETA SUBUNIT-LIKE PROTEIN): 0.96
- fold change - vehicle control (protein TB11.02.4170 40S RIBOSOMAL PROTEIN S5, PUTATIVE): 1.39
- fold change - vehicle control (protein TB11.03.0250 C[…]): 1.72
- fold change - vehicle control (protein TB11.46.0009 HY[…], CONSERVED): 1.02
- fold change - vehicle control (protein TB427TMP.01.0620 HY[…], CONSERVED): 0.96
- fold change - vehicle control (protein TB427TMP.01.1475 40S RIBOSOMAL PROTEIN S27, PUTATIVE): 1.03
- fold change - vehicle control (protein TB427TMP.01.4280 HY[…], CONSERVED): 0.85
- fold change - vehicle control (protein TB427TMP.01.4650 HY[…], CONSERVED): 1.21
- fold change - vehicle control (protein TB427TMP.01.4810 HY[…], CONSERVED): 0.93
- fold change - vehicle control (protein TB427TMP.01.5680 HY[…], CONSERVED): 0.97
- fold change - vehicle control (protein TB427TMP.01.8390 HY[…], CONSERVED): 0.8
- fold change - vehicle control (protein TB427TMP.02.0230 HY[…], CONSERVED): 1.22
- fold change - vehicle control (protein TB427TMP.02.0460 NUCLEOPORIN): 0.88
- fold change - vehicle control (protein TB427TMP.02.1106 NUCLEOBASE/NUCLEOSIDE TRANSPORTER 8 1): 1.35
- fold change - vehicle control (protein TB427TMP.160.2050 ENDO-BETA-N-ACETYLGLUCOSAMINIDASE, PUTATIVE): 0.89
- fold change - vehicle control (protein TB427TMP.160.4310 GLUTAMATE DEHYDROGENASE): 0.49
- fold change - vehicle control (protein TB427TMP.160.4450 40S RIBOSOMAL PROTEIN S3, PUTATIVE): 1.06
- fold change - vehicle control (protein TB427TMP.160.4630 HY[…], CONSERVED): 0.91
- fold change - vehicle control (protein TB427TMP.160.5200 HY[…], CONSERVED): 0.86
- fold change - vehicle control (protein TB427TMP.160.5670 HY[…], CONSERVED): 0.81
- fold change - vehicle control (protein TB427TMP.211.0930 POLYADENYLATE-BINDING PROTEIN 1): 1.27
- fold change - vehicle control (protein TB427TMP.211.1750 MIT[…] PROTEIN, PUTATIVE): 0.97
- fold change - vehicle control (protein TB427TMP.211.3510 ATP-DEPENDENT DEAD/H RNA HELICASE, PUTATIVE): 0.96
- fold change - vehicle control (protein TB427TMP.211.4540 RNA-BINDING PROTEIN, PUTATIVE): 0.6
- fold change - vehicle control (protein TB427TMP.244.2840 HY[…], CONSERVED): 1
- fold change - vehicle control (protein TB427.01.1240 CYTIDINE TR[…], PUTATIVE): 0.8
- fold change - vehicle control (protein TB427.01.2570 COATOMER BETA SUBUNIT): 0.82
- fold change - vehicle control (protein TB427.01.3910 HY[…], CONSERVED): 0.61
- fold change - vehicle control (protein TB427.02.450 RETRO[…] SPOT (RHS) PROTEIN, PUTATIVE): 0.84
- fold change - vehicle control (protein TB427.04.3350 HY[…], CONSERVED): 1.08
- fold change - vehicle control (protein TB427.04.3890 ATP-DEPENDENT RNA HELICASE, PUTATIVE): 0.83
- fold change - vehicle control (protein TB427.04.4870 AMINO ACID TRANSPORTER, PUTATIVE): 1.02
- fold change - vehicle control (protein TB427.04.750 50S RIBOSOMAL PROTEIN L7AE, PUTATIVE): 0.95
- fold change - vehicle control (protein TB427.04.960 HY[…], CONSERVED): 0.72
- fold change - vehicle control (protein TB427.05.1490 HY[…], CONSERVED): 0.95
- fold change - vehicle control (protein TB427.05.1780 HY[…], CONSERVED): 0.73
- fold change - vehicle control (protein TB427.05.3030 INTR[…] PROTEIN IFT122, PUTATIVE): 0.96
- fold change - vehicle control (protein TB427.06.3110 PROTEIN KINASE, PUTATIVE (CRK11)): 0.94
- fold change - vehicle control (protein TB427.06.5110 DAMAGE-SPECIFIC DNA BINDING PROTEIN, PUTATIVE): 0.9
- fold change - vehicle control (protein TB427.07.2670 HY[…], CONSERVED): 0.98
- fold change - vehicle control (protein TB427.07.3040 HY[…], CONSERVED): 0.96
- fold change - vehicle control (protein TB427.07.3530 HY[…], CONSERVED): 0.91
- fold change - vehicle control (protein TB427.07.4970 GLUTAMINE SYNTHETASE, PUTATIVE): 0.92
- fold change - vehicle control (protein TB427.07.5560 GLUCOSAMINE-FRUCTOSE-6-PHOSPHATE AMINOTRANSFERASE, PUTATIVE): 0.87
- fold change - vehicle control (protein TB427.07.5890 HY[…], CONSERVED): 0.8
- fold change - vehicle control (protein TB427.07.7070 HY[…], CONSERVED): 0.79
- fold change - vehicle control (protein TB427.07.7460 HY[…], CONSERVED): 0.98
- fold change - vehicle control (protein TB427.08.1500 HY[…], CONSERVED): 0.94
- fold change - vehicle control (protein TB427.08.1840 HY[…], CONSERVED): 0.7
- fold change - vehicle control (protein TB427.08.1960 HY[…], CONSERVED): 0.83
- fold change - vehicle control (protein TB427.08.2080 HY[…], CONSERVED): 0.75
- fold change - vehicle control (protein TB427.08.3750 NUCLEOLAR PROTEIN, PUTATIVE): 1.04
- fold change - vehicle control (protein TB427.08.6390 LYSOPHOSPHOLIPASE, PUTATIVE): 0.97
- fold change - vehicle control (protein TB427.10.10610 PROTEIN TYROSINE PHOSPHATASE, PUTATIVE): 0.94
- fold change - vehicle control (protein TB427.10.1100 60S RIBOSOMAL PROTEIN L9, PUTATIVE): 1.08
- fold change - vehicle control (protein TB427.10.12740): 0.97
- fold change - vehicle control (protein TB427.10.15720 […]-ATP-ASE SUBUNIT 9): 0.81
- fold change - vehicle control (protein TB427.10.2440 METACASPASE MCA4): 0.88
- fold change - vehicle control (protein TB427.10.2900 IMPORTIN BETA-1 SUBUNIT, PUTATIVE): 0.94
- fold change - vehicle control (protein TB427.10.3470 HY[…], CONSERVED): 0.79
- fold change - vehicle control (protein TB427.10.4110 60S RIBOSOMAL PROTEIN L30): 0.93
- fold change - vehicle control (protein TB427.10.4610 […]-MANNOSE SYNTHASE, PUTATIVE): 0.93
- fold change - vehicle control (protein TB427.10.5250 HY[…], CONSERVED): 0.89
- fold change - vehicle control (protein TB427.10.5840 T[…] 1-BETA, PUTATIVE): 0.85
- fold change - vehicle control (protein TB427.10.7410 SUCCINYL-COA LIGASE GDP-FORMING] BETA-CHAIN, PUTATIVE): 0.76
- fold change - vehicle control (protein TB927.10.12960 RAS-RELATED PROTEIN RAB-5): 1.03
- fold change - vehicle control (protein TB927.10.14800 PROTEIN KINASE, PUTATIVE): 1.13
- fold change - vehicle control (protein TB927.10.2980 […]-ATPASE SUBUNIT 11): 1.09
- fold change - vehicle control (protein TB927.10.3660 ASPARTATE AMINOTRANSFERASE): 1.09
- fold change - vehicle control (protein TB927.10.4570 […] 2): 0.79
- fold change - vehicle control (protein TB927.10.5140 PROTEIN KINASE, PUTATIVE): 0.91
- fold change - vehicle control (protein TB927.10.6510 CHAPERONIN HSP60, MIT[…]): 0.96
- fold change - vehicle control (protein TB927.3.1840 3-OXO-5-ALPHA-STEROID 4-DEHYDROGENASE, PUTATIVE): 1.16
- fold change - vehicle control (protein TB927.3.3780 TRYPAREDOXIN): 0.92
- fold change - vehicle control (protein TB927.3.740 HY[…], CONSERVED): 0.95
- fold change - vehicle control (protein TB927.4.2740 HY[…], CONSERVED): 0.85
- fold change - vehicle control (protein TB927.4.3590 T[…] 1-BETA, PUTATIVE): 0.81
- fold change - vehicle control (protein TB927.6.4320 HY[…], CONSERVED): 0.98
- fold change - vehicle control (protein TB927.7.2550 […] SUBUNIT 5): 0.92
- fold change - vehicle control (protein TB927.7.2980 HY[…], CONSERVED): 0.88
- fold change - vehicle control (protein TB927.7.5340 HY[…], CONSERVED): 1.48
- fold change - vehicle control (protein TB927.7.7430 ATP SYNTHASE ALPHA CHAIN, MIT[…]): 0.92
- fold change - vehicle control (protein TB927.8.1990 PEROXIDOXIN): 1.04
- fold change - vehicle control (protein TB927.8.4720 AMINO ACID TRANSPORTER, PUTATIVE): 1.06
